Experimental data reported in PubChem BioAssay AID2060352 (Molecular Pharmacology Branch, DTP, NCI, 2025).
pIC50: −log10 of the molar value. Several values for one entry are separate records, joined by “and”; a condition that tells them apart may be missing. Equal values may be shown once.

Test system: 616215-338-R-J1-PDC spheroid with HUVEC/MSC, viability
Test: Anticancer human tumor 616215-338-R-J1-PDC patient-derived colon adenocarcinoma cell line growth inhibition [TAK]
Conditions: for viability, T/C: stronger effect = lower value
Excerpt: Combinatorial screen of targeted agents with TAK-243 and ipatasertib in multi-cell type tumor spheroids
A high-throughput screen of multi-cell type tumor spheroids was designed to identify active combinations of targeted small molecules and TAK-243 or ipatasertib. Complex spheroids include a stromal component modeled by human endothelial cells (HUVEC) and fibroblasts modeled by human mesenchymal stem cells (MSCs). The concentration ranges selected for each drug and investigational agent were based upon clinically achievable concentrations if the clinical Cmax of the agent was known.
Compounds. The drugs and investigational agents: TAK-243 (785004), ipatasertib (767898), everolimus (733504), selumetinib (741078), bortezomib (756655), trametinib (758246), ixazomib (758254), vemurafenib (761431), dabrafenib (764134), sapanisertib (764658), alpelisib (765974), and copanlisib (816437), were obtained from the National Cancer Institute (NCI) Developmental Therapeutics Program Chemical Repository. The FDA-approved anticancer drug set is available from the NCI Developmental Therapeutics Program. […] The stock solutions were prepared in dimethyl sulfoxide (DMSO, Sigma-Aldrich, St. Louis, MO, cat. D2650) at 800-fold the tested concentration and stored at -70 degrees C prior to their use. All drugs and investigational agents were tested over a range starting from a high concentration at or near the clinical Cmax and decreasing in half-log increments. If the clinical Cmax for an agent had not been determined, the highest concentration tested was 10 microM.
NCI60 Cell Culture. NCI60 cell lines were obtained from the NCI Developmental Therapeutics Program Tumor Repository. For each lot of cells, the Repository performed Applied Biosystems AmpFLSTR Identifiler testing with PCR amplification to confirm consistency with the published Identifier STR profile for each cell line. Cells were kept in continuous culture for no more than 20 passages. The optimal seeding densities for each of the cell lines at each time point assessed were determined prior to performing the concentration response studies. Briefly, the NCI60 human tumor lines were grown as monolayers in RPMI 1640 medium supplemented with 10% FBS and 2 mmol/L L-glutamine.
An additional 2 lines were from the NCI60 cell line panel including melanomas, MALME-3M and SK-MEL-2. Pooled donor human umbilical vein endothelial cells (HUVEC, Lonza, cat. CC-2519) and human mesenchymal stem cells (hMSC, Lonza, cat. PT-2501) were purchased from Lonza (Walkersville, MD).
PDMR cell lines were grown in complete medium (DC medium): Dulbecco's modified Eagle's medium (DMEM)/F12 supplemented with 5% fetal bovine serum (FBS), 2 mM L-glutamine, 100 U/mL penicillin and 100 µg/ml streptomycin, 0.4 µg/ml hydrocortisone, 10 ng/ml epidermal growth factor (EGF) recombinant human protein, 24 µg/mL adenine, and 0.1 mg/mL primocin. During culture from frozen stock vials, PDMR cells were cultured in the same medium containing 10 µM Y-27632 (see Table 3). The PDCs were cultured in complete DMEM/F12 media without 10 microM Y-27632 dihydrochloride for at least two passages prior to the screen. The pooled donor HUVEC and hMSC were cultured in endothelial cell growth medium 2 (PromoCell, Heidelberg, Germany, cat. C-22011) and mesenchymal stem cell growth medium 2 (PromoCell, cat. C-28009), respectively. For all experiments, HUVEC and hMSC were used at passages </=5.
For the pre-screen, cell seeding densities were determined from a titration spanning the range from 5,000 to 313 cells per well. The mct-spheroids including 60% malignant cells, 25% HUVEC and 15% MSC dispensed as a mixture into U-bottom Ultra-Low Attachment 384-well plates (Corning, NY)
High-throughput Drug Combination Screening.
Prior to their inoculation into 384-well plates, malignant cells, HUVEC, and hMSC were removed from T flasks using TrypLE express (Thermo Fisher Scientific, cat. 12605036) and harvested by centrifugation for 5 min at 233 x g. […]
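Also: spheroids exposed to drugs for 7 days before readout.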

`COc1c(OCCCN2CCOCC2)ccc2c3n(c(=NC(=O)c4cnc(N)nc4)nc12)CCN3` + CC(C)NCC(C(=O)N1CCN(c2ncnc3c2C(C)CC3O)CC1)c1ccc(Cl)cc1 gave a pIC50 (curve of first compound, second compound 0.3 µM) of 7.00, a pIC50 (curve of first compound, second compound 0.949 µM) of 7.14 and a pIC50 (curve of first compound, second compound 3 µM) of 8.03. The pIC50 (curve of first compound, second compound 9.49 µM) was greater than 8.50, the pIC50 (curve of first compound, second compound 30 µM) was greater than 8.50 and the viability, T/C (second compound 0.3 µM, first compound 0.00316 µM) was 101%. For the same molecule, the viability, T/C (second compound 0.3 µM, first compound 0.01 µM) was 113%, the viability, T/C (second compound 0.3 µM, first compound 0.0316 µM) was 110% and the viability, T/C (second compound 0.3 µM, first compound 0.1 µM) was 49.7%. It also gave a viability, T/C (second compound 0.3 µM, first compound 0.316 µM) of 27.2%, a viability, T/C (second compound 0.3 µM, first compound 1 µM) of 17.6% and a viability, T/C (second compound 0.949 µM, first compound 0.00316 µM) of 113%. It also gave a viability, T/C (second compound 0.949 µM, first compound 0.01 µM) of 117%, a viability, T/C (second compound 0.949 µM, first compound 0.0316 µM) of 83.3% and a viability, T/C (second compound 0.949 µM, first compound 0.1 µM) of 37.4%. The viability, T/C (second compound 0.949 µM, first compound 0.316 µM) was 24.4%, the viability, T/C (second compound 0.949 µM, first compound 1 µM) was 15.8% and the viability, T/C (second compound 3 µM, first compound 0.00316 µM) was 64.3%. For the same molecule, the viability, T/C (second compound 3 µM, first compound 0.01 µM) was 49.7%, the viability, T/C (second compound 3 µM, first compound 0.0316 µM) was 33.9% and the viability, T/C (second compound 3 µM, first compound 0.1 µM) was 26.4%. It also gave a viability, T/C (second compound 3 µM, first compound 0.316 µM) of 19.1%, a viability, T/C (second compound 3 µM, first compound 1 µM) of 15.6% and a viability, T/C (second compound 9.49 µM, first compound 0.00316 µM) of 23.5%. It also gave a viability, T/C (second compound 9.49 µM, first compound 0.01 µM) of 31.1%, a viability, T/C (second compound 9.49 µM, first compound 0.0316 µM) of 20.9% and a viability, T/C (second compound 9.49 µM, first compound 0.1 µM) of 14.4%. The viability, T/C (second compound 9.49 µM, first compound 0.316 µM) was 12.7%, the viability, T/C (second compound 9.49 µM, first compound 1 µM) was 14.9% and the viability, T/C (second compound 30 µM, first compound 0.00316 µM) was 11.7%. The viability, T/C (second compound 30 µM, first compound 0.01 µM) was 12.8%, the viability, T/C (second compound 30 µM, first compound 0.0316 µM) was 9.99% and the viability, T/C (second compound 30 µM, first compound 0.1 µM) was 9.6%. It also gave a viability, T/C (second compound 30 µM, first compound 0.316 µM) of 8.41% and a viability, T/C (second compound 30 µM, first compound 1 µM) of 7.42%.

`COc1c(OCCCN2CCOCC2)ccc2c3n(c(=NC(=O)c4cnc(N)nc4)nc12)CCN3` was tested, and the viability, T/C (compound 0.00316 µM) was 108% and 106%, the viability, T/C (compound 0.01 µM) was 108% and 113% and the viability, T/C (compound 0.0316 µM) was 117% and 114%. For the same molecule, the viability, T/C (compound 0.1 µM) was 57.7% and 54.2%, the viability, T/C (compound 0.316 µM) was 27.8% and 31.5% and the viability, T/C (compound 1 µM) was 17.4% and 16.5%. For the same molecule, the pIC50 (curve of compound) was 6.89 and 6.93.

`COC1CC2CCC(C)C(O)(O2)C(=O)C(=O)N2CCCCC2C(=O)OC(C(C)CC2CCC(OCCO)C(OC)C2)CC(=O)C(C)C=C(C)C(O)C(OC)C(=O)C(C)CC(C)C=CC=CC=C1C` (centres undefined) was tested, and the viability, T/C (compound 0.000316 µM) was 98.5% and 109%, the viability, T/C (compound 0.001 µM) was 93.9% and 116% and the viability, T/C (compound 0.00316 µM) was 96.7% and 111%. For the same molecule, the viability, T/C (compound 0.01 µM) was 107% and 112%, the viability, T/C (compound 0.0316 µM) was 110% and 117% and the viability, T/C (compound 0.1 µM) was 110% and 83%. For the same molecule, the pIC50 (curve of compound) was less than 7.00.
